For 29 compounds, IC50 results are on record in patent US9873690B2, “3-indol substituted derivatives, pharmaceutical compositions and methods for use” (Pfizer Inc., priority 2015, dated 2018).

T1 sequence (P48775 whole entry): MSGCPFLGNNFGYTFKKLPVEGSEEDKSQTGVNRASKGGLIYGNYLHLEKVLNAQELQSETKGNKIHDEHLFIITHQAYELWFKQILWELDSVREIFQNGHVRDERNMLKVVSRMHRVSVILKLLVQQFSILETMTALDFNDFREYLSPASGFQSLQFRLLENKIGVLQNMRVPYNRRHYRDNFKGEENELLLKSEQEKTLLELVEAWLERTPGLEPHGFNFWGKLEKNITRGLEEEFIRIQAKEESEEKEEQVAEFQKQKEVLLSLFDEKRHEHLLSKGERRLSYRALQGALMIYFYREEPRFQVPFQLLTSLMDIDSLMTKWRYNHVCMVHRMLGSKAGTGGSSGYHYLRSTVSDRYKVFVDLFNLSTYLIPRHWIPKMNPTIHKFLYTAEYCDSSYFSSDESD

This test has as its target T1, hTDO2 (Homo sapiens, UniProt P48775).
T1 construct: endogenous in cells; host or cells: A172 human brain glioblastoma cells (ATCC CRL-1620)
Put plainly: Cellular assay for TDO2 activity determination in A172 cells. Conditions: human glioblastoma A172 cells naturally expressing hTDO2; overnight incubation; kynurenine by absorbance at 480 nm. Format: cell-based. How it is done: The compounds of formula I inhibit the activity of human TDO2 in cells that constitutively express TDO2, such as A172 cells. A172 is a cell line derived from human brain glioblastoma cells. The cells are available from the American Type Culture Collection (ATCC®) as CRL-1620™.
The assay (adapted from Pilotte L et al., Proc Natl Acad Sci USA, 2012, 109(7), 2497-502) was performed in 96-well flat bottom plates seeded with human glioblastoma A172 cells, naturally expressing hTDO2 (prepared as described in Tilman et al., Mol Cancer, 2007, 17(6), 80), at a concentration of 1.25×10^4 cells/well in a final volume of 200 μL. To determine TDO, the cells were incubated overnight at 37° C. at 5% CO2 in IMDM (Invitrogen) supplemented with 2% FBS and 2% penicillin/streptomycin in the presence of the compounds of the present invention, at different concentrations.
The plates were then centrifuged 5 min at 1000 rpm, and 100 μL of the supernatant were collected in a conical plate, 30 μL of TCA 30% were added and a further centrifuged at 3000×g for 10 minutes. 100 μL of the supernatant were collected in a flat bottomed plate and 100 μL of 2% (w/v) 4-(dimethylamino)-benzaldehyde in acetic acid and incubated for 5 min at room temperature. Kynurenine concentrations were determined by measuring the absorbance at 480 nm. A standard curve was made with pure kynurenine. The TDO activity was measured as described above using ten serial concentrations of the compounds of the present invention. Data were fitted using the Prism™ software (GraphPad Software, Inc.) using standard parameters.
The biological activity of representative compounds in human brain glioblastoma cells as determined in the above-referenced assay is summarized in the following table: […]
The compound `COC(=O)C1NS(=O)(=O)c2ccc(-c3c[nH]c4cc(F)ccc34)cc21` (racemic) [Example 14, methyl 5-(6-fluoro-1H-indol-3-yl)-2,3-dihydrobenzo-[d]isothiazole-3-carboxylate 1,1-dioxide] returned an IC50 of 8090 nM.
Compound `C[C@H]1NS(=O)(=O)c2ccc(-c3c[nH]c4cc(F)ccc34)cc21` (single isomer, unassigned) [Example 1, (+)-5-(6-fluoro-1H-indol-3-yl)-3-methyl-2,3-dihydro-1,2-benzothiazole 1,1-dioxide] gave an IC50 of 27 nM.
Compound `C[C@@H]1NS(=O)(=O)c2ccc(-c3c[nH]c4cc(F)ccc34)cc21` (single isomer, unassigned) [Example 2, (−)-5-(6-fluoro-1H-indol-3-yl)-3-methyl-2,3-dihydro-1,2-benzothiazole 1,1-dioxide] showed an IC50 of 110 nM.
`CC1c2cc(-c3c[nH]c4cc(F)ccc34)ccc2S(=O)(=O)N1CC1(C)COC(=O)N1` (single isomer, unassigned) [Example 87]: it took 313 nM to reach half-maximal inhibition (IC50).
On to `CC1c2cc(-c3c[nH]c4cc(F)ccc34)ccc2S(=O)(=O)N1C[C@@H](O)CO` (single isomer, unassigned) [Example 93], for which the IC50 was found to be 269 nM.
Turning to `CC1c2cc(-c3c[nH]c4cc(F)ccc34)ccc2S(=O)(=O)N1C[C@H](O)CO` (single isomer, unassigned) [Example 95], the IC50 was found to be 114 nM.
Then `CNC(=O)C(N)CN1C(C)c2cc(-c3c[nH]c4cc(F)ccc34)ccc2S1(=O)=O` (single isomer, unassigned) [Example 101], with 366 nM.
Then `CNCC1NS(=O)(=O)c2ccc(-c3c[nH]c4cc(F)ccc34)cc21` (single isomer, unassigned) [Example 137, 5-(6-fluoro-1H-indol-3-yl)-3-((methylamino)methyl)-2,3-dihydrobenzo[d]isothiazole 1,1-dioxide], with 66 nM; and `CNC(=O)C(C)N1C(C)c2cc(-c3c[nH]c4cc(F)ccc34)ccc2S1(=O)=O` (single isomer, unassigned) [Example 147, 2-(5-(6-fluoro-1H-indol-3-yl)-3-methyl-1,1-dioxidobenzo[d]isothiazol-2(3H)-yl)-N-methylpropanamide], with 59 nM.
`CCC1NS(=O)(=O)c2ccc(-c3c[nH]c4cc(F)ccc34)cc21` (single isomer, unassigned; (+)) [Example 3, (+)-3-ethyl-5-(6-fluoro-1H-indol-3-yl)-2,3-dihydrobenzo[d]-isothiazole 1,1-dioxide] returned an IC50 of 64 nM.
Then `CCCC1NS(=O)(=O)c2ccc(-c3c[nH]c4cc(F)ccc34)cc21` (single isomer, unassigned; (+)) [Example 6, (+)-5-(6-fluoro-1H-indol-3-yl)-3-propyl-2,3-dihydrobenzo[d]isothiazole 1,1-dioxide], with 367 nM; and `CC(C)C1NS(=O)(=O)c2ccc(-c3c[nH]c4cc(F)ccc34)cc21` (single isomer, unassigned; (+)) [Example 8, (+)-5-(6-fluoro-1H-indol-3-yl)-3-isopropyl-2,3-dihydrobenzo[d]isothiazole 1,1-dioxide], with 47 nM.
On to `O=S1(=O)NC(C2CC2)c2cc(-c3c[nH]c4cc(F)ccc34)ccc21` (single isomer, unassigned; (+)) [Example 10, (+)-3-cyclopropyl-5-(6-fluoro-1H-indol-3-yl)-2,3-dihydrobenzo[d]isothiazole 1,1-dioxide], for which it took 240 nM to reach half-maximal inhibition (IC50).
Then `O=S1(=O)NC(CO)c2cc(-c3c[nH]c4cc(F)ccc34)ccc21` (single isomer, unassigned; (+)) [Example 13, (+)-5-(6-fluoro-1H-indol-3-yl)-3-(hydroxymethyl)-2,3-dihydrobenzo[d]isothiazole 1,1-dioxide], with 43 nM; and `NC(=O)C1NS(=O)(=O)c2ccc(-c3c[nH]c4cc(F)ccc34)cc21` (single isomer, unassigned; (+)) [Example 16, (+)-5-(6-fluoro-1H-indol-3-yl)-2,3-dihydrobenzo[d]-isothiazole-3-carboxamide 1,1-dioxide], with 1380 nM.
Regarding `CNC(=O)C1NS(=O)(=O)c2ccc(-c3c[nH]c4cc(F)ccc34)cc21` (single isomer, unassigned; (+)) [Example 18, (+)-5-(6-fluoro-1H-indol-3-yl)-N-methyl-2,3-dihydrobenzo[d]isothiazole-3-carboxamide 1,1-dioxide], 5000 nM corresponded to half-maximal inhibition (IC50).
For the compound `NCC1NS(=O)(=O)c2ccc(-c3c[nH]c4cc(F)ccc34)cc21` (single isomer, unassigned; (+)) [Example 19, (+)-3-(aminomethyl)-5-(6-fluoro-1H-indol-3-yl)-2,3-dihydrobenzo[d]isothiazole 1,1-dioxide], the IC50 was determined as 311 nM.
Then `COC(=O)NCC1NS(=O)(=O)c2ccc(-c3c[nH]c4cc(F)ccc34)cc21` (single isomer, unassigned; (+)) [Example 22, (+)-methyl ((5-(6-fluoro-1H-indol-3-yl)-1,1-dioxido-2,3-dihydrobenzo[d]isothiazol-3-yl)methyl)carbamate], with 647 nM; and `CC(=O)NCC1NS(=O)(=O)c2ccc(-c3c[nH]c4cc(F)ccc34)cc21` (single isomer, unassigned; (+)) [Example 24, (+)-N-((5-(6-fluoro-1H-indol-3-yl)-1,1-dioxido-2,3-dihydrobenzo[d]isothiazol-3-yl)methyl)acetamide], with 255 nM; and `CN(C)CC1NS(=O)(=O)c2ccc(-c3c[nH]c4cc(F)ccc34)cc21` (single isomer, unassigned; (+)) [Example 26, (+)-3-((dimethylamino)methyl)-5-(6-fluoro-1H-indol-3-yl)-2,3-dihydrobenzo[d]isothiazole 1,1-dioxide], with 437 nM.
Then `CC(=O)N(C)CC1NS(=O)(=O)c2ccc(-c3c[nH]c4cc(F)ccc34)cc21` (single isomer, unassigned; (+)) [Example 27, (+)-N-((5-(6-fluoro-1H-indol-3-yl)-1,1-dioxido-2,3-dihydrobenzo[d]isothiazol-3-yl)methyl)-N-methylacetamide], with 226 nM.
Then `O=S1(=O)NC(CCO)c2cc(-c3c[nH]c4cc(F)ccc34)ccc21` (single isomer, unassigned; (+)) [Example 30, (+)-5-(6-fluoro-1H-indol-3-yl)-3-(2-hydroxyethyl)-2,3-dihydrobenzo[d]isothiazole 1,1-dioxide], with 34 nM; and `C[S+]([O-])CCN1Cc2cc(-c3c[nH]c4cc(F)ccc34)ccc2S1(=O)=O` (single isomer, unassigned; (+)) [Example 42, (+)-5-(6-fluoro-1H-indol-3-yl)-2-(2-(methylsulfinyl)ethyl)-2,3-dihydrobenzo[d]isothiazole 1,1-dioxide], with 142 nM; and `CNC(=O)CCN1C(C)c2cc(-c3c[nH]c4cc(F)ccc34)ccc2S1(=O)=O` (single isomer, unassigned; (+)) [Example 45, (+)-3-(5-(6-fluoro-1H-indol-3-yl)-3-methyl-1,1-dioxidobenzo[d]-isothiazol-2(3H)-yl)-N-methylpropanamide], with 71 nM.
Consider `CC1c2cc(-c3c[nH]c4cc(F)ccc34)ccc2S(=O)(=O)N1CCC(N)=O` (single isomer, unassigned; (+)) [Example 47, (+)-3-(5-(6-fluoro-1H-indol-3-yl)-3-methyl-1,1-dioxidobenzo[d]isothiazol-2(3H)-yl)propanamide], for which the IC50 was found to be 199 nM.
In the case of `CC1c2cc(-c3c[nH]c4cc(F)ccc34)ccc2S(=O)(=O)N1CCC(=O)N1CCNCC1` (single isomer, unassigned; (+)) [Example 49, (+)-3-(5-(6-fluoro-1H-indol-3-yl)-3-methyl-1,1-dioxido-benzo [d]isothiazol-2(3H)-yl)-1-(piperazin-1-yl)propan-1-one], the IC50 is 91 nM.
Then `CC1c2cc(-c3c[nH]c4cc(F)ccc34)ccc2S(=O)(=O)N1C1CCNCC1` (single isomer, unassigned; (+)) [Example 52, (+)-5-(6-fluoro-1H-indol-3-yl)-3-methyl-2-(piperidin-4-yl)-2,3-dihydrobenzo[d]isothiazole 1,1-dioxide], with 563 nM.
In turn, `CC1c2cc(-c3c[nH]c4cc(F)ccc34)ccc2S(=O)(=O)N1CCS(C)(=O)=O` (single isomer, unassigned; (+)) [Example 53, (+)-5-(6-fluoro-1H-indol-3-yl)-3-methyl-2-(2-(methylsulfonyl)ethyl)-2,3-dihydrobenzo[d]isothiazole 1,1-dioxide] had an IC50 of 70 nM.
The compound `CC1c2cc(-c3c[nH]c4cc(F)ccc34)ccc2S(=O)(=O)N1CC[S+](C)[O-]` (single isomer, unassigned; (+)) [Example 55, (+)-5-(6-fluoro-1H-indol-3-yl)-3-methyl-2-(2-(methylsulfinyl)ethyl)-2,3-dihydrobenzo[d]isothiazole 1,1-dioxide] had a half-inhibitory concentration (IC50) of 76 nM.

As usually defined, the IC50 is the point on the concentration scale where inhibition reaches its midpoint.
